Converted amounts (≈) assume the structure as drawn. “Also recorded” adds a separate entry of the source. Read-outs that look alike come from different tables or passages of the source.
Experiments:
[1] = target: T1, adenosine A1 receptors (Bos taurus, UniProt P28190); assay: biochemical;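 further: Filter-bound radioactivity read by liquid scintillation counting, with dose-inhibition curves built from 4–8 test concentrations, each run in triplicate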
T1 sequence (P28190 1-326): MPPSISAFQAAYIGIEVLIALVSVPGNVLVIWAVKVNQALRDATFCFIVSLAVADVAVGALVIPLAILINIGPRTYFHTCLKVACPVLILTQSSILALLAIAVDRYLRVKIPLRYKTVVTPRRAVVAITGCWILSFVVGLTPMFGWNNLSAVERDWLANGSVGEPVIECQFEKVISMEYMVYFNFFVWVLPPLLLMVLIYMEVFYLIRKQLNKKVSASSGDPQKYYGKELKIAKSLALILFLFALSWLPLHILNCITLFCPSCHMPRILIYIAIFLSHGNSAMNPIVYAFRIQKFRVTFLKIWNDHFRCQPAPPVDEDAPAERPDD
Experimental: (§1) Incubation was terminated and samples were collected on GF/B filters under vacuum, washed three times, and counted in a liquid scintillation counter. Dose-inhibition curves were generated with four to eight concentrations of the test compound in triplicate incubations.

[2] = target: T1, adenosine A1 receptors; assay: inhibition of [^3 H]CHA binding to A1 adenosine receptors in bovine brain membranes;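 further: Filter-bound radioactivity read by liquid scintillation counting, with dose-inhibition curves built from 4–8 test concentrations, each run in triplicate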
Experimental: as §1

[3] = Solubility of 8-phenylxanthines; format: physicochemical
[4] = target: T1, adenosine A1 receptors
Experimental: as §1

[5] = hydrophobicity; format: physicochemical
[6] = target: T2, A1 receptor in rat brain (Rattus norvegicus, UniProt P25099); assay: A1 receptor affinity in rat brain; format: binding
T2 construct: from tissue; host or cells: rat brain
T2 sequence (P25099 1-326): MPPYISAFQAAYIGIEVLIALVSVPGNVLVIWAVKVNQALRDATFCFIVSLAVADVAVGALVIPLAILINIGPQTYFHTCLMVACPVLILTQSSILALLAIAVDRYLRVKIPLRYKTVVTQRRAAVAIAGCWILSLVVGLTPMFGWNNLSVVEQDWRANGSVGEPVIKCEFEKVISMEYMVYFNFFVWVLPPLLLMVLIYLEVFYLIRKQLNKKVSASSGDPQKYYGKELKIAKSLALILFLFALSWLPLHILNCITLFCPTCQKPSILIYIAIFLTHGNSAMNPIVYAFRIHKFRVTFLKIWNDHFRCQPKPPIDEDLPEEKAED

[7] = Table II, vs [^3 H-CHA] in bovine brain
[8] = Table I, vs [^3 H]-cyclohexyladenosine, bovine brain

## CCn1c(=O)c2[nH]c(-c3ccc(Cl)cc3N)nc2n(CC)c1=O [1,3-diethyl-8-(2-amino-4-chlorophenyl)X, 1,3-diethyl-8-(2-amino-4-chlorophenyl)xanthine]
[1]
  Ki: 0.32 nM
[2]; [7]
  IC50: 0.8 nM

## CCn1c(=O)c2[nH]c(-c3ccccc3)nc2n(CC)c1=O [1,3-diethyl-8-phenylX, 1,3-diethyl-8-phenylxanthine]
[3]; water, read-out: soluble in water at
  solubility: 3 µM (≈ 0.853 µg/mL)

## Cn1c(=O)c2[nH]c(-c3ccc([N+](=O)[O-])cc3N)nc2n(C)c1=O [8-(2-amino-4-nitrophenyl)T]
[1]
  Ki: 1.2 nM
[2]; [7]
  IC50: 2.5 nM

## Cn1c(=O)c2nc(-c3ccccc3N)[nH]c2n(C)c1=O [B87, 8-(o-aminophenyl)theophylline]
[2]
  IC50: 5 nM
  Ki: 2.3 nM

## Cn1c(=O)c2[nH]c(-c3ccc(N)cc3)nc2n(C)c1=O [B211, 8-(p-aminophenyl)theophylline]
[2]
  IC50: 1.7 nM
  Ki: 0.69 nM

## Cn1c(=O)c2[nH]c(-c3ccc(N)cc3N)nc2n(C)c1=O [B232, 8-(2,4-diaminophenyl)theophylline]
[1]
  Ki: 5.9 nM
[2]; [8]
  IC50: 8 nM

## Cn1c(=O)c2[nH]c(-c3ccc(Cl)cc3N)nc2n(C)c1=O [B246, 8-(2-Amino-4-Chlorophenyl) Theophylline]
[1]
  Ki: 0.2 nM
[2]
  IC50: 0.15 nM
[2]; bovine brain
  adenosine receptor blocking activity (in words): significantly lower

## CCCn1c(=O)c2[nH]c(-c3ccccc3)nc2n(CCC)c1=O [B255, 1,3-Dipropyl-8-Phenylxanthine]
[2]
  IC50: 0.3 nM
  Ki: 0.12 nM
[2]; bovine brain
  adenosine receptor blocking activity (in words): significantly lower
  times more potent than theophylline: about 10,000 times

## CCCn1c(=O)c2[nH]c(-c3ccc(Cl)cc3N)nc2n(CCC)c1=O [B256, 1,3-dipropyl-8-(2-amino-4-chlorophenyl)xanthine]
[4]
  Ki: 0.022 nM
[5]
  hydrophobicity (in words): hydrophobic
[6]
  Ki: 5 nM
  more potent than 8-phenyltheophylline using rat brain: about 30 fold
  more potent than theophylline using rat brain: ~2000 fold
[3]; dmf, organic solvent or mixture, read-out: soluble in DMF at
  solubility: 30000 µM (≈ 10900 µg/mL)
[3]; ethanol, organic solvent or mixture, read-out: soluble in ethanol at
  solubility: 1000 µM (≈ 362 µg/mL)
[3]; hot 0.1n koh, read-out: soluble in hot 0.1N KOH at
  solubility: 1000 µM (≈ 362 µg/mL)
[3]; water
  water solubility (in words): very water-insoluble
[2]; [8]
  IC50: 0.05 nM
[2]; bovine brain
  activity relative to most active prior art compound (B70): ~16 times
  adenosine receptor blocking activity (in words): significantly lower; also recorded: extremely potent; also recorded: particularly outstanding activity
  times more potent than xanthine: approximately 4,000,000 times
[2]; read-out: Ki for adenosine A1 receptors, bovine brain
  Ki: 0.022 nM

## CCCn1c(=O)c2nc(-c3ccc(N)cc3N)[nH]c2n(CCC)c1=O [B262, 1,3-Dipropyl-8-(2,4-Diaminophenyl) Xanthine]
[1]
  Ki: 0.14 nM
[3]; water
  water solubility (in words): much greater water solubility
[2]
  IC50: 0.2 nM
[2]; bovine brain
  activity relative to most active prior art compound (B70): four-fold greater
  adenosine receptor blocking activity (in words): substantially less active than B256; also recorded: particularly outstanding activity
[2]; bovine brain, listed as 262
  adenosine receptor blocking activity (in words): significantly lower

## Nc1ncnc2nc[nH]c12 [adenine]
[2]
  IC50: 800000 nM

## O=c1nc2[nH]c3ccccc3nc-2c(=O)[nH]1 [alloxazine]
[2]
  IC50: 1500 nM

## Cn1c(=O)c2c(ncn2C)n(C)c1=O [caffeine]
[2]
  IC50: 20000 nM
  Ki: 11000 nM

## O=c1[nH]c(=O)c2[nH]cnc2[nH]1 [xanthine]
[2]
  IC50: 200000 nM
  Ki: 99000 nM

From patent US4769377A, “Adenosine receptor antagonists” (priority 1986, dated 1988)
